Source: ChEMBL document CHEMBL3526097, “Preclinical disposition of GDC-0973 and prospective and retrospective analysis of human dose and efficacy predictions” (Drug Metab Dispos, 2012)

How the values were obtained:
[1] = Ratio of drug level in tumor to plasma in mouse xenografted with human COLO205 cells at 3 mg/kg after 2 hrs; assay type: ADME, organism-based, COLO 205; parameters: dose 3 mg/kg
[2] = Cmax in Sprague-Dawley rat at 3 mg/kg, po by LC-MS/MS analysis; assay type: ADME, organism-based; parameters: dose 3 mg/kg, route oral; settings: in vivo
[3] = target: Dual specificity mitogen-activated protein kinase kinase 1 (Homo sapiens, UniProt Q02750); experiment: Inhibition of MEK1 (unknown origin)
[4] = Terminal half life in cynomolgus monkey at 3 mg/kg, iv by LC-MS/MS analysis; assay type: ADME, organism-based, Macaca fascicularis; parameters: dose 3 mg/kg, route intravenous; settings: in vivo, read-out: beta t1/2 (converted)
[5] = Ratio of unbound drug level in brain to plasma in mouse at 3 mg/kg after 2 hrs; assay type: ADME, organism-based; parameters: dose 3 mg/kg; settings: read-out: BPR
COLO 205 = experiment: Antitumor activity against human COLO205 cells expressing B-raf V600E mutant xenografted in po dosed mouse assessed as inhibition of tumor growth; assay type: functional, organism-based
MDR1 [6] = experiment: Efflux ratio of permeability from […] side in MDCK1 cells expressing MDR1 at 25 uM after 2 hrs by LC-MS/MS analysis; assay type: ADME, cell-based, Canis lupus familiaris; settings: dog, MDCK-MDR1
[7] = Cmax in cynomolgus monkey at 3 mg/kg, po by LC-MS/MS analysis; assay type: ADME, organism-based, Macaca fascicularis; parameters: dose 3 mg/kg, route oral; settings: in vivo
[8] = Tmax in nu/nu mouse at 3 mg/kg, po by LC-MS/MS analysis; assay type: ADME, organism-based; parameters: dose 3 mg/kg, route oral; settings: in vivo
[9] = Terminal half life in Sprague-Dawley rat at 3 mg/kg, iv by LC-MS/MS analysis; assay type: ADME, organism-based; parameters: dose 3 mg/kg, route intravenous; settings: in vivo, read-out: beta t1/2 (converted)
[10] = target: ATP-dependent translocase ABCB1 (Homo sapiens, UniProt P08183); experiment: Inhibition of MDR1 (unknown origin) at 25 uM; assay type: ADME
[11] = Apparent permeability from basolateral to apical side of MDCK1 cells at 10 uM after 60 mins; assay type: ADME, cell-based, Canis lupus familiaris; settings: dog, MDCK
[12] = Tmax in cynomolgus monkey at 3 mg/kg, po by LC-MS/MS analysis; assay type: ADME, organism-based, Macaca fascicularis; parameters: dose 3 mg/kg, route oral; settings: in vivo
Plasma = experiment: Fraction unbound in mouse plasma at 3 mg/kg after 2 hrs; assay type: ADME, organism-based; parameters: dose 3 mg/kg; settings: in vivo
[13] = Oral bioavailability in Sprague-Dawley rat at 3 mg/kg by LC-MS/MS analysis; assay type: ADME, organism-based; settings: in vivo
[14] = Volume of distribution at steady state in nu/nu mouse at 1 mg/kg, iv by LC-MS/MS analysis; assay type: ADME, organism-based; parameters: dose 1 mg/kg, route intravenous; settings: in vivo, read-out: Vdss
Mus musculus = experiment: AUC (infinity) in nu/nu mouse at 1 mg/kg, iv by LC-MS/MS analysis; assay type: ADME, organism-based, Plasma; parameters: time infinity, dose 1 mg/kg, route intravenous; settings: in vivo
[15] = Plasma clearance in Sprague-Dawley rat at 3 mg/kg, iv by LC-MS/MS analysis; assay type: ADME, organism-based; parameters: dose 3 mg/kg, route intravenous
[16] = Plasma clearance in Beagle dog at 3 mg/kg, iv by LC-MS/MS analysis; assay type: ADME, organism-based, Canis lupus familiaris; parameters: dose 3 mg/kg, route intravenous
[17] = Oral bioavailability in nu/nu mouse at 3 mg/kg by LC-MS/MS analysis; assay type: ADME, organism-based; settings: in vivo
[18] = Oral bioavailability in cynomolgus monkey at 3 mg/kg by LC-MS/MS analysis; assay type: ADME, organism-based, Macaca fascicularis; settings: in vivo
[19] = Apparent permeability from apical to basolateral side of MDCK1 cells at 10 uM after 60 mins; assay type: ADME, cell-based, Canis lupus familiaris; settings: dog, MDCK
[20] = Fraction unbound in mouse brain; assay type: ADME, tissue-based
[21] = Oral bioavailability in Beagle dog at 3 mg/kg by LC-MS/MS analysis; assay type: ADME, organism-based, Canis lupus familiaris; settings: in vivo
[22] = Volume of distribution at steady state in Sprague-Dawley rat at 3 mg/kg, iv by LC-MS/MS analysis; assay type: ADME, organism-based; parameters: dose 3 mg/kg, route intravenous; settings: in vivo, read-out: Vdss
[23] = Terminal half life in Beagle dog at 3 mg/kg, iv by LC-MS/MS analysis; assay type: ADME, organism-based, Canis lupus familiaris; parameters: dose 3 mg/kg, route intravenous; settings: in vivo, read-out: beta t1/2 (converted)
[24] = AUC (infinity) in nu/nu mouse at 3 mg/kg, po by LC-MS/MS analysis; assay type: ADME, organism-based; parameters: time infinity, dose 3 mg/kg, route oral; settings: plasma
Brain [25] = experiment: Unbound AUC in mouse brain; assay type: ADME, tissue-based; settings: in vivo
Rattus norvegicus = experiment: AUC (infinity) in Sprague-Dawley rat at 3 mg/kg, iv by LC-MS/MS analysis; assay type: ADME, organism-based, Plasma; parameters: dose 3 mg/kg, route intravenous, time infinity; settings: in vivo
[26] = AUC (infinity) in Sprague-Dawley rat at 3 mg/kg, po by LC-MS/MS analysis; assay type: ADME, organism-based; parameters: time infinity, dose 3 mg/kg, route oral; settings: plasma
[27] = Volume of distribution at steady state in Beagle dog at 3 mg/kg, iv by LC-MS/MS analysis; assay type: ADME, organism-based, Canis lupus familiaris; parameters: dose 3 mg/kg, route intravenous; settings: in vivo, read-out: Vdss
[28] = Tmax in Sprague-Dawley rat at 3 mg/kg, po by LC-MS/MS analysis; assay type: ADME, organism-based; parameters: dose 3 mg/kg, route oral; settings: in vivo
[29] = Cmax in nu/nu mouse at 3 mg/kg, po by LC-MS/MS analysis; assay type: ADME, organism-based; parameters: dose 3 mg/kg, route oral; settings: in vivo
[30] = Volume of distribution at steady state in cynomolgus monkey at 3 mg/kg, iv by LC-MS/MS analysis; assay type: ADME, organism-based, Macaca fascicularis; parameters: dose 3 mg/kg, route intravenous; settings: in vivo, read-out: Vdss
[31] = AUC (infinity) in cynomolgus monkey at 3 mg/kg, po by LC-MS/MS analysis; assay type: ADME, organism-based, Macaca fascicularis; parameters: time infinity, dose 3 mg/kg, route oral; settings: plasma
Canis familiaris = experiment: AUC (infinity) in Beagle dog at 3 mg/kg, iv by LC-MS/MS analysis; assay type: ADME, organism-based, Canis lupus familiaris, Plasma; parameters: dose 3 mg/kg, route intravenous, time infinity; settings: in vivo
Brain [32] = experiment: Unbound concentration in mouse brain at 3 mg/kg after 2 hrs; assay type: ADME, organism-based; parameters: dose 3 mg/kg; settings: in vivo
[33] = Tmax in Beagle dog at 3 mg/kg, po by LC-MS/MS analysis; assay type: ADME, organism-based, Canis lupus familiaris; parameters: dose 3 mg/kg, route oral; settings: in vivo
[34] = Antiproliferative activity against human COLO205 cells expressing B-raf V600E mutant; assay type: functional, cell-based; settings: COLO 205
[35] = Ratio of drug level in brain to plasma in mouse at 3 mg/kg after 2 hrs; assay type: ADME, organism-based; parameters: dose 3 mg/kg; settings: read-out: BPR
MDR1 [36] = experiment: Apparent permeability from basolateral to apical side of MDCK1 cells expressing MDR1 at 25 uM after 2 hrs by LC-MS/MS analysis; assay type: ADME, cell-based, Canis lupus familiaris; settings: dog, MDCK-MDR1
[37] = Terminal half life in nu/nu mouse at 1 mg/kg, iv by LC-MS/MS analysis; assay type: ADME, organism-based; parameters: dose 1 mg/kg, route intravenous; settings: in vivo, read-out: beta t1/2 (converted)
[38] = Efflux ratio of permeability from […] side in MDCK1 cells at 10 uM after 60 mins; assay type: ADME, cell-based, Canis lupus familiaris; settings: dog, MDCK
Cynomolgus monkey = experiment: AUC (infinity) in cynomolgus monkey at 3 mg/kg, iv by LC-MS/MS analysis; assay type: ADME, organism-based, Macaca fascicularis, Plasma; parameters: time infinity, dose 3 mg/kg, route intravenous; settings: in vivo
[39] = Drug uptake in tumor of mouse xenografted with human COLO205 cells at 3 mg/kg after 2 hrs; assay type: ADME, organism-based, Neoplasm, COLO 205; parameters: dose 3 mg/kg; settings: read-out: Drug uptake

ATP-dependent translocase ABCB1, sequence (P08183 whole entry): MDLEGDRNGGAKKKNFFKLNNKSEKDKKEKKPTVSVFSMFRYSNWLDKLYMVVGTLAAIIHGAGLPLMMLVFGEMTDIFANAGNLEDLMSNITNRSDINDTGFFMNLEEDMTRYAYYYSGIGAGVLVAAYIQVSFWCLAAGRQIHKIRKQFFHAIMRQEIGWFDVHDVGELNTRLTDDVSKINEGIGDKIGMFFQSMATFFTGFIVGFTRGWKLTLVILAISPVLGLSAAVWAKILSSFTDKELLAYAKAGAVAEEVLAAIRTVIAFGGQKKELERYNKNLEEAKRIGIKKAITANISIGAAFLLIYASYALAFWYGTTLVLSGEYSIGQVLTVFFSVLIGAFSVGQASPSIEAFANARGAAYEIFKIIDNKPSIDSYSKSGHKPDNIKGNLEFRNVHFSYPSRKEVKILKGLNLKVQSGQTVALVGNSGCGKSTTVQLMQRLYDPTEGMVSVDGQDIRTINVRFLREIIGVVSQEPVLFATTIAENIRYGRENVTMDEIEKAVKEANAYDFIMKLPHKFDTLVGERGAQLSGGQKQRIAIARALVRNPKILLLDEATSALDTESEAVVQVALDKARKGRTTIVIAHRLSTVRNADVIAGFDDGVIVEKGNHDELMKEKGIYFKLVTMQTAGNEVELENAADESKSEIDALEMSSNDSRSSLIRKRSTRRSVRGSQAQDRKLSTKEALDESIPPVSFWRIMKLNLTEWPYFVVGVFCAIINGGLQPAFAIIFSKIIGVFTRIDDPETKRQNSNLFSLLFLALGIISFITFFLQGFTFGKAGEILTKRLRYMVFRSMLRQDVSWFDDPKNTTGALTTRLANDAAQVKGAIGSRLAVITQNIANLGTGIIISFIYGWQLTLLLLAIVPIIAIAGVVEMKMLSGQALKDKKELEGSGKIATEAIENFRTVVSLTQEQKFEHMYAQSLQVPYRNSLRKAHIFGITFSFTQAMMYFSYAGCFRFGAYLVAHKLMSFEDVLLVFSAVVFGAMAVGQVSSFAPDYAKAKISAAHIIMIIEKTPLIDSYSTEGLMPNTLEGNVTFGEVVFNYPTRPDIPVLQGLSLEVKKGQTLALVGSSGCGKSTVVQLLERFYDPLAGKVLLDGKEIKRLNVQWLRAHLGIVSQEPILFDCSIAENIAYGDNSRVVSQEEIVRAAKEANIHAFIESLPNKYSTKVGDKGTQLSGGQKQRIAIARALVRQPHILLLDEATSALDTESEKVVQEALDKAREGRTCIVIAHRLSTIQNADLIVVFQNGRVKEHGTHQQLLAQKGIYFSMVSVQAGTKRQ
Dual specificity mitogen-activated protein kinase kinase 1, sequence (Q02750 whole entry): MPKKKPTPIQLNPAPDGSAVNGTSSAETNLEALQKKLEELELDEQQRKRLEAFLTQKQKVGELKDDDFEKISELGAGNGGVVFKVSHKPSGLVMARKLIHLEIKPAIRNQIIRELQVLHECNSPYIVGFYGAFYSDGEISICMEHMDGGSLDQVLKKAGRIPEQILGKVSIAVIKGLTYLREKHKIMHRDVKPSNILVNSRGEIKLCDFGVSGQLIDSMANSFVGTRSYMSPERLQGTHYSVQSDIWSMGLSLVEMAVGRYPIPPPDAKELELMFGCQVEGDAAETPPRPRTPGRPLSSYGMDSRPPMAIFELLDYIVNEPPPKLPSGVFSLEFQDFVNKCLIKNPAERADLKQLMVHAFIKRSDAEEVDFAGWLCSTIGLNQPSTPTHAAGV

## O=C(c1ccc(F)c(F)c1Nc1ccc(I)cc1F)N1CC(O)([C@@H]2CCCCN2)C1 [COBIMETINIB]
[1]
  Kp at 2 h: 9
[2]
  Cmax: 193 ng/mL
[3]
  IC50: 4.2 nM
[4]
  half-life: 10.3 h
[5]
  Kp uu at 2 h: 0.018
COLO 205
  TGI: Dose-dependent effect
MDR1 [6]
  efflux ratio at 2 h, 25 µM: 40
[7]
  Cmax: 50 ng/mL
[8]
  Tmax: 0.25 h
[9]
  half-life: 13.3 h
[10]
  inhibition (INH): Not Active
[11]
  Papp B→A at 1 h, 10 µM: 4 ×10⁻⁶ cm/s
[12]
  Tmax: 2 h
Plasma
  Cp(f): 5.7 nM
[13]
  bioavailability: 69%
[14]
  Vd: 9.4 L/kg
Mus musculus
  AUC: 935 ng·h/mL
[15]
  clearance: 37.8 mL/min/kg
[16]
  clearance: 5.53 mL/min/kg
[17]
  bioavailability: 53.9%
[18]
  bioavailability: 19.6%
[19]
  Papp A→B at 1 h, 10 µM: 1.39 ×10⁻⁶ cm/s
[20]
  fraction unbound: 0.0012
[21]
  bioavailability: 69.1%
[22]
  Vd: 34.6 L/kg
[23]
  half-life: 9.19 h
[24]
  AUC(0-inf): 1510 ng·h/mL
Brain [25]
  fAUC: 3 nM·h
Rattus norvegicus
  AUC: 2320 ng·h/mL
[26]
  AUC(0-inf): 1590 ng·h/mL
[27]
  Vd: 3.99 L/kg
[28]
  Tmax: 3.5 h
[29]
  Cmax: 184 ng/mL
[30]
  Vd: 29.6 L/kg
[31]
  AUC(0-inf): 640 ng·h/mL
Canis familiaris
  AUC: 17100 ng·h/mL
Brain [32]
  Concentration: 0.1 nM
[33]
  Tmax: 2.67 h
[34]
  IC50: 8 nM
[35]
  Kp at 2 h: 0.5
MDR1 [36]
  Papp B→A at 2 h, 25 µM: 35.4 ×10⁻⁶ cm/s
[37]
  half-life: 3.92 h
[38]
  efflux ratio at 1 h, 10 µM: 3
Cynomolgus monkey
  AUC: 3340 ng·h/mL
[39]
  concentration at 2 h: 1560 nM
